Measured values published in publication PMC5225203, “Multiparameter toxicity assessment of novel DOPO-derived organophosphorus flame retardants” (Archives of Toxicology, 2016).

What was measured:
[1] = system: neuronal and non-neuronal cell models; assay: Synopsis of all in vitro assays applied in this work; format: cell-based, human; settings: for cytotoxic effects: at concentrations higher than 100 µM; for IC50: Homo sapiens, read-out: average IC50 values; for concentration with cell type-independent cytotoxic properties: all cellular in vitro models
Experimental: IC50 values are defined by the concentration of the flame retardant investigated where the response was reduced by half. Log-transformed flame retardant concentration values and the respective response data were fitted to a four-parameter logistic equation: y=A+B-A/1+(x/C)^D The percent inhibition response data are represented by y; B = maximum of y; A = minimum of y; x = flame retardant concentration; C = IC50; D = Hill slope factor. The IC50 values were calculated from these sigmoidal dose–response curves utilizing Prism 5.0 (GraphPad, San Diego, CA, USA) software.

[2] = system: fully differentiated LUHMES cells; assay: Toxicity in mature central nervous system neurons (neurite mass, viability); format: cell-based, human; settings: 48 h; for influence on neurites / viability: concentrations as high as 100 µM; for concentration evoking degeneration of neurites: day 6–8, all assays
Experimental: LUHMES cells are conditionally immortalized human fetal ventral mesencephalic neuronal precursor cells that were obtained by clonal selection. Differentiated LUHMES cells show a clear dopaminergic phenotype, which was described in detail previously (Schildknecht et al. [2009]; Scholz et al. [2011]). Cells were propagated in advanced DMEM/F12 (Gibco/Invitrogen, Darmstadt, Germany) with 1 × N2 supplement (Invitrogen), 2 mM L-glutamine (Gibco), and 40 ng/mL recombinant bFGF (R&D Systems, Minneapolis, MN, USA). The differentiation process was initiated by adding differentiation medium consisting of advanced DMEM/F12, 1 × N2 supplement, 2 mM L-glutamine, 1 mM dibutyryl cAMP (Sigma), 1 µg/mL tetracycline (Sigma), and 2 ng/mL recombinant human GDNF (R + D Systems). After 2 days, cells were trypsinized, collected in advanced DMEM/F12 medium, and seeded onto 24-well plates at a density of 160,000 cells/cm^2. The differentiation process was continued for 4 days. Fully differentiated LUHMES cells were treated with the tested flame retardants for 48 h from day 6 to 8 of differentiation. For visualization of morphology, cells were fixed with 4 % paraformaldehyde for 20 min at room temperature, permeabilized with 0.2 % Triton X-100, washed with PBS, blocked with 1 % BSA (Calbiochem, San Diego, CA, USA) in PBS for 1 h, and stained with a polyclonal anti-β-III-tubulin antibody (Sigma) in 1 % BSA/PBS at 4 °C overnight. After washing, secondary antibodies (anti-mouse-IgG, Alexa 488, Molecular Probes; 1:1000) in 1 % BSA/PBS were added for 1 h, after which nuclei were stained with Hoechst dye H-33342 (1 µg/mL) for 20 min. For visualization, an Olympus IX 81 microscope (Hamburg, Germany) equipped with an F-view CCD camera was used. For quantitative evaluation of the neurite area, β-III-tubulin-stained cells were analyzed using an automated microplate-reading microscope (Array-Scan II® HCS Reader, Cellomics, Pittsburgh, PA, USA) equipped with a Hamamatsu ORCA-ER camera (1024 × 1024 resolution; run at 2 × 2 binning). Nuclei were identified according to their intensity, size, area, and shape. A virtual area corresponding to the cell soma was defined around each nucleus. The total β-III-tubulin pixel area per field minus the soma areas in that field was defined as neurite mass.
[% of total activity ± SD]
[% of total activity± SD]
Suppl. Fig. 7. Toxicity of flame retar dants in central human neurons. Mature human dopaminergic neurons (LUHMES) were treated w ith the different flame retardants in the concentrations as indicated for 48 h from day 6 to day 8 of differentiation. a Cell viability was determined by the resazurin reduction and by the lact ate dehydrogenase release a ssays. b Intracellular levels of ATP and of reduced glutathione (GSH) were measured in parallel.

[3] = Penetration into porcine skin by confocal Raman spectroscopy; format: in vitro ADME; settings: 1 h; for maximal penetration depth: porcine skin surface, 400 µM; for penetration/accumulation into porcine ear skin: topical 400 µM, confocal Raman
Experimental: The vertical distribution of topically applied DOPO derivatives and reference compounds was investigated on segments of porcine ears from freshly slaughtered animals. The skin was separated from the cartilage, depilated, and placed into Franz diffusion cells (1 cm^2). The acceptor solution was PBS buffer containing 2 % IGEPAL® CA-630 (Sigma-Aldrich). The test compounds were dispersed at a concentration of 400 µM (2 % in the case of caffeine) in PBS buffer containing 2 % IGEPAL® CA-630, after which 300 µL of this mixture (or a blank solution) was topically applied onto the porcine skin and allowed to penetrate for 60 min. Next, the skin was removed from the Franz cells, gently washed with PBS, and placed onto the optical window of an inverse confocal Raman microscope (Model 3510 SCA, River Diagnostics) equipped with a 60 × oil-immersion objective. The 785-nm excitation laser was used to acquire spectra in the fingerprint region (400–1800 cm^−1, 5 s integration time) starting from the surface of the skin and extending to a depth of 60 µm (2 µm step size). The acquisition was repeated for at least five positions. The averaged concentration profiles of the flame retardants and reference compounds were extracted by fitting (unrestricted classical least squares, third-order polynomial baseline) the Raman spectra with the reference spectra of keratin (as representative of all proteins), water, ceramide 3, cholesterol (as representatives of all lipids), natural moisturizing factor (NMF; fixed composition), lactate, urea, and solid test compounds using Skin Tools 2.0 software (River Diagnostics). The concentrations of the test substances are given as the molar fraction relative to keratin rather than correcting for the Raman signal attenuation using mathematical models (Franzen et al. [2013]). The response factors of the test compounds were determined against BSA solutions assuming similar Raman cross sections for keratin and BSA as described in the literature (Caspers et al. [2001]; Fleischli et al. [2013], [2015]). Because EDA-DOPO, ETA-DOPO, and EG-DOPO were only partially soluble in chloroform, their spectra were calibrated against DOPO with the assumption of the same Raman cross section for the biphenyl group. Because of the nature of the unrestricted fit, negative fitting coefficients can be obtained and the values must be compared to those of the blank sample. The fitting coefficients of the blank, untreated skin were also used to estimate the level of detection. The depth resolution of the confocal microscope was determined to be 8 µm at FWHM, leaving an uncertainty of approximately 4 µm in differentiating between truly permeated compounds and compounds sitting at the surface of the skin.

| Structure (SMILES) | cytotoxic effects [1] | influence on neurites / viability [2] | IC50 [1] [µM] | concentration with cell type-independent cytotoxic properties [1] [µM] | concentration evoking degeneration of neurites [2] [µM] | maximal penetration depth [3] | penetration/accumulation into porcine ear skin [3] | other results |
| --- | --- | --- | --- | --- | --- | --- | --- | --- |
| O=[PH]1Oc2ccccc2-c2ccccc21 (centres unmarked) [DOPO, 9,10-dihydro-9-oxa-10-phosphaphenanthrene-10-oxide] | no comparable effects | no influence |  |  |  |  |  | influence on all parameters investigated ([1]; concentrations up to 400 µM): no influence |
| O=P1(NCCNP2(=O)Oc3ccccc3-c3ccccc32)Oc2ccccc2-c2ccccc21 (centres unmarked) [EDA-DOPO, 6,6′-(ethane-1,2-diylbis(azanediyl))bis(6H-dibenzo[c,e][1,2]oxaphosphinine-6-oxide)] | no comparable effects | no influence |  |  |  |  |  | harmful effects ([1]; all assays utilized): no harmful effects |
| O=P1(OCCOP2(=O)Oc3ccccc3-c3ccccc32)Oc2ccccc2-c2ccccc21 (centres unmarked) [EG-DOPO, 6,6′-(ethane-1,2-diylbis(oxy))bis(6H-dibenzo[c,e][1,2]oxaphosphinine-6-oxide)] |  |  | 20 to 100 | > 10 | > 10 |  |  |  |
| O=P1(NCCOP2(=O)Oc3ccccc3-c3ccccc32)Oc2ccccc2-c2ccccc21 (centres unmarked) [ETA-DOPO, 6-(2-((6-oxido-6H-dibenzo[c,e][1,2]oxaphosphinin-6-yl)amino)ethoxy)-6H-dibenzo[c,e][1,2]oxaphosphinine 6-oxide] |  |  | 20 to 100 | > 10 | > 10 | less than 8 µm | significant accumulation |  |
| Brc1ccc(Oc2cc(Br)c(Br)cc2Br)c(Br)c1 [PBDE-99, reference compound] |  |  |  |  | > 10 | less than 8 µm | moderate accumulation | concentration with distinct neuro-selective cytotoxicity ([1]; abstract): ≥ 10 µM; concentration detrimentally influencing central and peripheral neurons ([1]; central and peripheral neurons): > 10 µM; toxicity in non-neuronal models ([1]; macrophages, lung epithelial cells, keratinocytes, concentrations as high as 400 µM): no significant toxicity |
